Each structure is given as a SMILES string.

The molecule `Cc1ccc(-c2ccc(C(=O)Nc3ccc4nc(CN5CCCC5)ccc4c3)cn2)cc1` [Example 46, 6-(4-Methylphenyl)-N-[2-(1-pyrrolidinylmethyl)-6-quinolinyl]nicotinamide] registered a melting point of 207 to 209 °C.
With `O=C(Nc1ccc2nc(CN3CCCC3)ccc2c1)C1CCN(c2ccc(Cl)cc2)CC1` [Example 52, 1-(4-Chlorophenyl)-N-[2-(1-pyrrolidinylmethyl)-6-quinolinyl]-4-piperidinecarboxamide], the melting point was in the range of 204 to 206 °C.
In the case of `O=C(Nc1ccc2nc(CN3CCCCC3)ccc2c1)c1ccc(-c2ccccc2)cc1` [Example 54, N-[2-(1-Piperidinylmethyl)-6-quinolinyl][1,1′-biphenyl]-4-carboxamide], the melting point fell in the range of 186 to 188 °C.
`Cc1ccc(-c2ccc(C(=O)Nc3ccc4nc(CN5CCCCC5)ccc4c3)cc2)cc1` [Example 55, 4′-Methyl-N-[2-(1-piperidinylmethyl)-6-quinolinyl][1,1′-biphenyl]-4-carboxamide] showed a melting point of 198 to 200 °C.
Regarding `COc1ccc(-c2ccc(C(=O)Nc3ccc4nc(CN5CCCCC5)ccc4c3)cc2)cc1` [Example 56, 4′-Methoxy-N-[2-(1-piperidinylmethyl)-6-quinolinyl][1,1′-biphenyl]-4-carboxamide], the melting point was 192 to 194 °C.
As for `O=C(Nc1ccc2nc(CN3CCCCC3)ccc2c1)c1ccc(-c2ccc(Cl)cc2)nc1` [Example 57, 6-(4-Chlorophenyl)-N-[2-(1-piperidinylmethyl)-6-quinolinyl]nicotinamide], the figure is 215 to 218 °C (dec.).
On to `Cc1ccc(-c2ccc(C(=O)Nc3ccc4nc(CN5CCCCC5)ccc4c3)cn2)cc1` [Example 58, 6-(4-Methylphenyl)-N-[2-(1-piperidinylmethyl)-6-quinolinyl]nicotinamide], for which the melting point is 206 to 207 °C (dec.).
For the molecule `O=C(Nc1ccc2nc(CN3CCCCC3)ccc2c1)c1ccc(-c2ccc(F)cc2)nc1` [Example 59, 6-(4-Fluorophenyl)-N-[2-(1-piperidinylmethyl)-6-quinolinyl]nicotinamide], the melting point was 209 to 210 °C (dec.).
As for `COc1ccc(-c2ccc(C(=O)Nc3ccc4nc(CN5CCCCC5)ccc4c3)cn2)cc1` [Example 60, 6-(4-Methoxyphenyl)-N-[2-(1-piperidinylmethyl)-6-quinolinyl]nicotinamide], the melting point was 210 to 211 °C (dec.).
Molecule `Cc1ccc(-c2ccc(C(=O)Nc3ccc4nc(CN5CCCC5)ccc4c3)cc2)cc1` [Example 61, 4′-Methyl-N-[2-(1-pyrrolidinylmethyl)-6-quinolinyl][1,1′-biphenyl]-4-carboxamide] showed a melting point of 192 to 193 °C.
The same measure for `COc1ccc(-c2ccc(C(=O)Nc3ccc4nc(CN5CCCC5)ccc4c3)cc2)cc1` [Example 62, 4′-Methoxy-N-[2-(1-pyrrolidinylmethyl)-6-quinolinyl][1,1′-biphenyl]-4-carboxamide]: 197 to 199 °C; for `O=C(Nc1ccc2nc(CN3CCCCC3)ccc2c1)N1CCC(c2ccc(Cl)cc2)CC1` [Example 63, 4-(4-Chlorophenyl)-N-[2-(1-piperidinylmethyl)-6-quinolinyl]-1-piperidinecarboxamide]: 214 to 217 °C (dec.); for `Cc1ccc(C2CCN(C(=O)Nc3ccc4nc(CN5CCCCC5)ccc4c3)CC2)cc1` [Example 64, 4-(4-Methylphenyl)-N-[2-(1-piperidinylmethyl)-6-quinolinyl]-1-piperidinecarboxamide]: 204 to 205 °C (dec.).
Consider `O=C(Nc1ccc2nc(CN3CCCCC3)ccc2c1)N1CCC(c2ccc(F)cc2)CC1` [Example 65, 4-(4-Fluorophenyl)-N-[2-(1-piperidinylmethyl)-6-quinolinyl]-1-piperidinecarboxamide], for which the melting point was 203 to 204 °C (dec.).
As to `O=C(Nc1ccc2nc(CN3CCCCC3)ccc2c1)c1ccc(-c2ccc(F)cc2F)nc1` [Example 69, 6-(2,4-Difluorophenyl)-N-[2-(1-piperidinylmethyl)-6-quinolinyl]nicotinamide], the melting point lay in the range of 182 to 183 °C.
The same measure for `CC1(C)CCCC(C)(C)N1Cc1ccc2cc(NC(=O)c3ccc(-c4ccc(Cl)cc4)nc3)ccc2n1` [Example 72, 6-(4-Chlorophenyl)-N-[2-[(2,2,6,6-tetramethyl-1-piperidinyl)methyl]-6-quinolinyl]nicotinamide]: 258 to 259 °C; for `Cc1ccc(-c2ccc(C(=O)Nc3ccc4nc(CN5C(C)(C)CCCC5(C)C)ccc4c3)cn2)cc1` [Example 73, 6-(4-Methylphenyl)-N-[2-[(2,2,6,6-tetramethyl-1-piperidinyl)methyl]-6-quinolinyl]nicotinamide]: 246 to 247 °C.
`CC1(C)CCCC(C)(C)N1Cc1ccc2cc(NC(=O)N3CCC(c4ccc(Cl)cc4)CC3)ccc2n1` [Example 74, 4-(4-Chlorophenyl)-N-[2-[(2,2,6,6-tetramethyl-1-piperidinyl)methyl]-6-quinolinyl]-1-piperidinecarboxamide] returned a melting point of 203 to 204 °C.
In turn, `Cc1ccc(C2CCN(C(=O)Nc3ccc4nc(CN5C(C)(C)CCCC5(C)C)ccc4c3)CC2)cc1` [Example 75, 4-(4-Methylphenyl)-N-[2-[(2,2,6,6-tetramethyl-1-piperidinyl)methyl]-6-quinolinyl]-1-piperidinecarboxamide] displayed a melting point of 200 to 202 °C.
Consider `C[C@@H]1CCC[C@H](C)N1Cc1ccc2cc(NC(=O)c3ccc(-c4ccc(F)cc4)cc3)ccc2n1` [Example 79, 4′-Fluoro-N-[2-[(cis-2,6-dimethyl-1-piperidinyl)methyl]-6-quinolinyl][1,1′-biphenyl]-4-carboxamide], for which the melting point fell in the range of 187 to 188 °C.
`C[C@@H]1CCC[C@H](C)N1Cc1ccc2cc(NC(=O)c3ccc(-c4ccccc4)cc3)ccc2n1` [Example 80, N-[2-[(cis-2,6-Dimethyl-1-piperidinyl)methyl]-6-quinolinyl][1,1′-biphenyl]-4-carboxamide] came in with a melting point of 180 to 181 °C.
Turning to `Cc1ccc(-c2ccc(C(=O)Nc3ccc4nc(CN5[C@H](C)CCC[C@@H]5C)ccc4c3)cc2)cc1` [Example 81, 4′-Methyl-N-[2-[(cis-2,6-dimethyl-1-piperidinyl)methyl]-6-quinolinyl][1,1′-biphenyl]-4-carboxamide], the melting point was 198 to 199 °C (dec.).
As for `C[C@@H]1CCC[C@H](C)N1Cc1ccc2cc(NC(=O)c3ccc(-c4ccc(Cl)cc4)nc3)ccc2n1` [Example 83, 6-(4-Chlorophenyl)-N-[2-[(cis-2,6-dimethyl-1-piperidinyl)methyl]-6-quinolinyl]nicotinamide], the figure is 217 to 219 °C (dec.).
Consider `Cc1ccc(C2CCN(C(=O)Nc3ccc4nc(CN5[C@H](C)CCC[C@@H]5C)ccc4c3)CC2)cc1` [Example 86, 4-(4-Methylphenyl)-N-[2-[(cis-2,6-dimethyl-1-piperidinyl)methyl]-6-quinolinyl]-1-piperidinecarboxamide], for which the melting point was 177 to 178 °C (dec.).
As for `CC1=NCCN1Cc1ccc2cc(NC(=O)c3ccc(-c4ccccc4)cc3)ccc2n1` [Example 93, N-[2-[(2-Methyl-4,5-dihydro-1H-imidazol-1-yl)methyl]-6-quinolinyl][1,1′-biphenyl]-4-carboxamide], the figure is 212 to 220 °C (dec.); as for `O=C(Nc1ccc2nc(CN3CCN=C3c3ccccc3)ccc2c1)c1ccc(-c2ccccc2)cc1` [Example 94, N-[2-[(2-Phenyl-4,5-dihydro-1H-imidazol-1-yl)methyl]-6-quinolinyl][1,1′-biphenyl]-4-carboxamide], 212 to 216 °C (dec.); as for `O=C(Nc1ccc2cc(CN3CCCC3)ccc2c1)N1CCC(c2ccc(F)cc2)CC1` [Example 99, 4-(4-Fluorophenyl)-N-[6-(1-pyrrolidinylmethyl)-2-naphthyl]-1-piperidinecarboxamide], 209 to 211 °C.
Molecule `COc1ccc(C2CCN(C(=O)Nc3ccc4cc(CN5CCCC5)ccc4c3)CC2)cc1` [Example 100, 4-(4-Methoxyphenyl)-N-[6-(1-pyrrolidinylmethyl)-2-naphthyl]-1-piperidinecarboxamide] displayed a melting point of 194 to 196 °C.
In the case of `O=C(Nc1ccc2cc(CN3CCCC3)ccc2c1)N1CCC(c2ccccc2)CC1` [Example 102, 4-Phenyl-N-[6-(1-pyrrolidinylmethyl)-2-naphthyl]-1-piperidinecarboxamide], the melting point is 193 to 195 °C.
As for `Cc1ccc(C2CCN(C(=O)Nc3ccc4cc(CN5CCCC5)ccc4c3)CC2)cc1` [Example 103, 4-Methylphenyl-N-[6-(1-pyrrolidinylmethyl)-2-naphthyl]-1-piperidinecarboxamide], the figure is 210 to 212 °C; as for `O=C(Nc1ccc2nc(CN3CCCCC3c3cccnc3)ccc2c1)c1ccc(-c2ccc(Cl)cc2)cc1` (centres unmarked) [Example 116, 4′-Chloro-N-[2-[[2-(3-pyridinyl)-1-piperidinyl]-methyl]-6-quinolinyl][1,1′-biphenyl]-4-carboxamide], 124 to 126 °C (dec.).
The molecule `COC[C@@H]1CCCN1Cc1ccc2cc(NC(=O)c3ccc(-c4ccc(Cl)cc4)cc3)ccc2n1` [Example 117, 4′-Chloro-N-[2-[[(2S)-2-(methoxymethyl)pyrrolidinyl]-methyl]-6-quinolinyl][1,1′-biphenyl]-4-carboxamide] registered a melting point of 172 to 174 °C.
`CC(C)(C)OC(=O)[C@@H]1CCCN1Cc1ccc2cc(NC(=O)c3ccc(-c4ccc(Cl)cc4)cc3)ccc2n1` [Example 118, Tert-butyl (2S)-1-[[6-[[(4′-chloro[1,1′-biphenyl]-4-yl)carbonyl]amino]-2-quinolinyl]methyl]-2-pyrrolidinecarboxylate] showed a melting point of 163 to 166 °C.
As for `COc1ccc(C2CCN(C(=O)Nc3ccc4cc(CN5C(C)(C)CCCC5(C)C)ccc4c3)CC2)cc1` [Example 119, 4-(4-Methoxyphenyl)-N-[6-[(2,2,6,6-tetramethyl-1-piperidinyl)methyl]-2-naphthyl]-1-piperidinecarboxamide], the melting point is 164 to 166 °C.
In turn, `COc1ccc(-c2ccc(C(=O)Nc3ccc4cc(CN5C(C)(C)CCCC5(C)C)ccc4c3)cc2)cc1` [Example 120, 4′-Methoxy-N-[6-[(2,2,6,6-tetramethyl-1-piperidinyl)methyl]-2-naphthyl][1,1′-biphenyl]-4-carboxamide] came in with a melting point of 212 to 214 °C.

One may read the melting point as the temperature, or range, at which the solid turns liquid.

The record behind these values is US6930185B2, “Melanin-concentrating hormone antagonist” (Takeda Chemical Industries, Ltd., priority 2000, dated 2005).
